In patent publication US10214746B2, “Soybean transformation method” (Dow AgroSciences LLC, priority 2013, dated 2019):
Entries after “also recorded” stand apart in the source; their conditions may differ.

What was measured:
soybean shoots = test: Rooting medium selection of aad-12 transformed soybean shoots with 2,4-D; type: in vivo, soybean (cv. Maverick); details: aad-12 transgene; rooting medium with 2,4-D about 2 to 120 mg/L
Experimental: Transformed soybean seed can be cultivated using a modified tissue culture protocol as described in U.S. Filing No. 61/739,349, herein incorporated by reference, wherein the selective agent is 2,4-D. Co-cultivation of the soybean plant seeds with Agrobacterium, can be carried out for 5 days on co-cultivation medium covered with a filter paper. After 5 days of incubation on the co-cultivation medium, the explants can be washed in liquid Shoot Induction (SI) medium for about 5 to 10 minutes. The explants can then be cultured onto Shoot Induction-I (SI-I) medium. The soybean seeds are oriented so the flat side of the soybean seed face up and the nodal end of the soybean cotyledon is imbedded into the SI-I medium. After 2 weeks of culture at 24° C. with an 18 hour photoperiod, the explants can be transferred to the Shoot Induction-II (SI-II) medium supplemented with 2 to 120 mg/L 2,4-D. After 2 weeks on SI-II medium, the cotyledons can be removed from the explants, wherein a flush shoot pad is excised by making a cut at the base of the cotyledon, and the isolated shoot is transferred to the Shoot Elongation (SE) medium. The cultures can be transferred to fresh SE medium every two weeks. PETRI™ dishes may not be wrapped with filter paper throughout the shoot induction and shoot elongation stages. […]

[1] = tested on: non-transgenic soybean shoots; test: Growth response (rooting) of non-transgenic soybean shoots on rooting medium with glufosinate; type: in vivo
Experimental: Growth response studies to varying concentrations of selection agent were conducted using non-transgenic soybean shoots. In this example, glufosinate was used as the exemplary selection agent. Soybean shoots were regenerated from split-seed soybean tissues and cultivated on Shoot Induction medium until shoots had developed and were ready for transfer to rooting medium. Several different concentrations of glufosinate (0, 0.25 mg/L, 0.50 mg/L, 1 mg/L, 2 mg/L, 3 mg/L, 4 mg/L, 5 mg/L, and 6 mg/L) were incorporated into rooting medium (MS salts, B5 vitamins, 28 mg/L ferrous, 38 mg/L Na^2EDTA, 20 g/L sucrose and 0.59 g/L MES, 50 mg/L asparagine, 100 mg/L L-pyroglutamic acid, and 7 g/L NOBLE™ agar, pH 5.6) to determine which concentrations of glufosinate inhibited root development. […] However, 90% and 50% of the soybean shoots cultivated in rooting medium containing glufosinate at concentrations of 0.25 mg/L and 0.5 mg/L, respectively, produced roots. (see Table 1). The effective glufosinate concentration for inhibition of soybean shoot growth and development was determined to be at least 1.0 mg/L of glufosinate. Higher concentrations of glufosinate (e.g., concentrations greater than 1.0 mg/L) were effective in inhibiting root development.

[2] = tested on: transgenic soybean events; test: Heritability analysis of transgenic soybean events produced on rooting medium comprising glufosinate (T1 plants sprayed with glufosinate); type: in vivo
From the text: A total of 153 transgenic soybean events were isolated and grown to maturity. These soybean events were self-fertilized to produce seed that was obtained and analyzed for heritability. All of the 153 transgenic soybean events were confirmed to contain the yellow fluorescent protein and phosphinothricin acetyltransferase transgenes via molecular analysis in the parental T0 soybean plants. For each of the 153 transgenic soybean events, 15 seeds were obtained and germinated in soil under conventional green house conditions. The transgenic soybean plants were grown to the V1 stage of development and were sprayed with 411 g ae/ha glufosinate, which was used as the exemplary selection agent in this example. After treatment with glufosinate, the soybean plants were observed and graded as resistant or susceptible to glufosinate. The transgenic soybean events that produced at least one T1 seedling were determined to be a heritable event.

[3] = tested on: transgenic soybean shoots; test: Root development and yellow fluorescence protein expression of pDAB9381-transformed soybean shoots on rooting medium with glufosinate; type: in vivo, Glycine max
Experimental: The transformed soybean seeds were cultivated using the tissue culture protocol as described in U.S. Filing No. 61/739,349, herein incorporated by reference. Co-cultivation of the soybean plant seeds with an Agrobacterium strain containing the pDAB9381 plasmid was carried out for 5 days on co-cultivation medium covered with a filter paper. After 5 days of incubation on the co-cultivation medium, the explants were washed in liquid Shoot Induction (SI) medium for about 5 to 10 minutes. The explants were then cultured onto Shoot Induction-I (SI-I) medium. The soybean seeds were oriented so the flat side of the soybean seed faced up and the nodal end of the soybean cotyledon was imbedded into the SI-I medium. After 2 weeks of culture at 24° C. with an 18 hour photoperiod, the explants were transferred to the Shoot Induction-II (SI-II) medium supplemented with 6 mg/L glufosinate. After 2 weeks on SI-II medium, the cotyledons were removed from the explants, a flush shoot pad was excised by making a cut at the base of the cotyledon, and the isolated shoot was transferred to the Shoot Elongation (SE) medium. The cultures were transferred to fresh SE medium every two weeks. PETRI™ dishes were not wrapped with filter paper throughout the shoot induction and shoot elongation stages. Lighting sources were provided with an illumination of 80-90 μmoles s-1m-2 for the transformed tissues during shoot induction and shoot elongation.
The elongated shoots were dipped in 1 mg/L indole 3-butyric acid (IBA) for about 1 to 3 minutes to promote rooting prior to transferring of the isolated shoots to rooting medium (MS salts, B5 vitamins, 28 mg/L ferrous, 38 mg/L Na^2EDTA, 20 g/L sucrose and 0.59 g/L MES, 50 mg/L asparagine, 100 mg/L L-pyroglutamic acid, and 7 g/L NOBLE™ agar, pH 5.6) in phyta trays. A selection agent of glufosinate at a concentration of 1 mg/L was incorporated into the rooting medium for a subset of the transformation experiments.
Following culturing in the rooting medium at 24° C., with an 18 hour photoperiod, for 1-2 weeks, the soybean shoots that produced healthy, viable roots were transferred to soil. The soybean shoots comprising healthy, viable roots were placed in soil which was contained in an open plastic sundae cup. The plastic sundae cups containing the transferred soybean shoots comprising roots were placed in a CONVIRON™ for acclimatization of soybean plantlets. The rooted soybean plantlets were acclimated in the open sundae cups for several weeks before the plantlets were transferred to the greenhouse.
Incorporation of a section agent comprising glufosinate in soybean tissue culture rooting medium was tested to reduce the formation of non-germline, chimeric soybean transformation events and escapes. Following Agrobacterium-mediated transformation of soybean (cv. Maverick) with the binary vector, pDAB9381, soybean shoots were regenerated and cultured onto rooting medium that contained a selection agent comprising glufosinate. After root development was initiated on the rooting media comprising glufosinate, the roots were tested for transgene expression (yellow fluorescence protein).
A total of 531 transgenic soybean shoots were produced using the transformation method described above and transferred onto rooting medium containing the selection agent glufosinate. […] (see Table 2). A correlation was observed between yellow fluorescence protein transgene expression and viable, white root formation, wherein a significant majority of the viable, white roots expressed the yellow fluorescence protein transgene in root tissues. (see FIG. 2, FIG. 3, and FIG. 5). Microscopy results confirmed that about 92% of the soybean plants produced from rooting medium comprising a selection agent were transgenic as these soybean plants expressed the yellow fluorescence protein transgene. (see FIG. 2, FIG. 3, and FIG. 5).

[4] = Brown/Black Roots on glufosinate rooting medium, 76 events
[5] = Total, 153 T1 events, T1 sprayed with 411 g ae/ha glufosinate
[6] = White Roots on glufosinate rooting medium, 77 events
[7] = glufosinate at least 1 mg/L in rooting medium
[8] = glufosinate 1 mg/L in rooting medium, 531 plants
[9] = root tissues, glufosinate 1 mg/L in rooting medium, 531 plants
[10] = rooting medium comprising glufosinate (1 mg/L)

Structure (SMILES): O=C(O)COc1ccc(Cl)cc1Cl [2,4-D, 2,4-dichlorophenoxyacetic acid]
- transgene expression in viable, white roots (soybean shoots): a significant majority of the viable, white roots express the transgene in root tissues

Structure (SMILES): CP(=O)(O)CCC(N)C(=O)O (racemic) [glufosinate, DL-phosphinothricin]
- Percentage of Shoots that Produced Roots ([1]; glufosinate 0.25 mg/L in rooting medium): 90%
- Number of Shoots Producing Roots ([1]; glufosinate 0.25 mg/L, 10 shoots cultivated): 9
- Percentage of Shoots that Produced Roots ([1]; glufosinate 0.5 mg/L in rooting medium): 50%
- Number of Shoots Producing Roots ([1]; glufosinate 0.5 mg/L, 10 shoots cultivated): 5
- Percentage of Shoots that Produced Roots ([1]; glufosinate 1.0 mg/L in rooting medium): 0%
- Number of Shoots Producing Roots ([1]; glufosinate 1.0 mg/L, 30 shoots cultivated): 0
- Percentage of Shoots that Produced Roots ([1]; glufosinate 2.0 mg/L in rooting medium): 0%
- Number of Shoots Producing Roots ([1]; glufosinate 2.0 mg/L, 30 shoots cultivated): 0
- Percentage of Shoots that Produced Roots ([1]; glufosinate 3.0 mg/L in rooting medium): 0%
- Number of Shoots Producing Roots ([1]; glufosinate 3.0 mg/L, 30 shoots cultivated): 0
- Percentage of Shoots that Produced Roots ([1]; glufosinate 4.0 mg/L in rooting medium): 0%
- Number of Shoots Producing Roots ([1]; glufosinate 4.0 mg/L, 25 shoots cultivated): 0
- Percentage of Shoots that Produced Roots ([1]; glufosinate 5.0 mg/L in rooting medium): 0%
- Number of Shoots Producing Roots ([1]; glufosinate 5.0 mg/L, 25 shoots cultivated): 0
- Percentage of Shoots that Produced Roots ([1]; glufosinate 6.0 mg/L in rooting medium): 0%
- Number of Shoots Producing Roots ([1]; glufosinate 6.0 mg/L, 25 shoots cultivated): 0
- root formation of soybean shoots ([1]; rooting media supplemented with 1 to 6 mg/L glufosinate): no root formation was observed
- effective glufosinate concentration for inhibition of soybean shoot growth and development ([1]; rooting medium, non-transgenic shoots): at least 1.0 mg/L
- Percentage of heritable events [2, 4]: 7%
- Percentage of non-heritable events [2, 4]: 93%
- Percentage of heritable events [2, 5]: 48%
- Percentage of non-heritable events [2, 5]: 52%
- Percentage of heritable events [2, 6]: 90%
- Percentage of non-heritable events [2, 6]: 10%
- advanced events with viable, healthy roots confirmed to be germline soybean transformants [2, 7]: about 90%
- non-germline (chimeric) events eliminated based on root phenotype (brown/black roots or no root development) [2, 7]: about 93%
- Number of Plants with Unhealthy, Brown/Black Roots [3, 8]: 212
- Number of Plants with Viable, White Roots [3, 8]: 319
- Plants with Unhealthy, Brown/Black Roots (%) [3, 8]: 40%
- Plants with Viable, White Roots (%) [3, 8]: 60%
- soybean plants produced from rooting medium comprising a selection agent that were transgenic (expressed the yellow fluorescence protein transgene) ([3]; microscopy, shoots with viable, white roots): about 92%
- Number of Plants with YFP Expression [3, 9]: 271
- Number of Plants with no YFP Expression [3, 9]: 260
- Plants with YFP Expression (%) [3, 9]: 51%
- Plants with no YFP Expression (%) [3, 9]: 49%
- root phenotype of germline transformants [3, 10]: produce healthy, viable roots; also recorded: healthy viable roots were produced
- root phenotype of non-germline or chimeric transformants [3, 10]: either do not form roots or develop brown/black roots; also recorded: do not produce viable roots; also recorded: (1) no roots were produced; (2) roots were produced and turned brown; and, (3) roots were produced and turned black
